# Where “and” joins values, the source holds several entries; their conditions need not be identical. Equal entries are not always repeated. Where two headings read alike, the source gives them in different places.
# Columns and labels:
# B. subtilis [1] = assay: Minimal division inhibitory concentration and cell division phenotype, B. subtilis; format: cell-based, Bacillus subtilis; settings: for minimal effective concentration: Bacillus subtilis, read-out: MDC B. subtilis
# Description: (§1) B. subtilis 168 and Staphylococcus spp. were grown in cation adjusted Mueller–Hinton broth (CAMHB; Becton, Dickinson and Company) at 37 °C. B. subtilis SU570 were grown in the same medium at 30 °C. In all cases, the cells were grown to an absorbance of 0.1–0.2 at 600 nm and then incubated either with the compounds or DMSO vehicle. Microscopy assays and cell measurement were performed as previously described.[31] MIC values were determined by a broth macrodilution method.[51] MBC values were determined as the lowest concentration of inhibitor at which there was a 99.9% reduction in colony-forming units/mL compared to the inoculum. To construct a S. aureus strain expressing FtsZ-mCherry, the plasmid pCN-ftsZmch[9] was electroporated into RN4220 and 0.1 μM cadmium chloride (Sigma-Aldrich) was used to induce the expression of the construct under the control of the Pcad promoter.
# [2] = target: T1, stabilized FtsZ-GMPCPP polymers (Bacillus subtilis, UniProt P17865); assay: Fluorescence anisotropy screen with probe (S)-2 at two compound concentrations; format: binding; settings: probe (S)-2 3 μM, compound 20 and 200 μM
# T1 construct: made in house
# Description: Once the fluorescence method for ligand binding into the interdomain cleft was set up, we evaluated its potential to screen for FtsZ allosteric inhibitors. Complementary to this screen, cytological profiling tests of the identified binders allow ascertaining their ability to target FtsZ in bacterial cells. Fluorescence anisotropy measurements of probe (S)-2 at two concentrations of each tested compound (20 and 200 μM) were acquired; the solubility range of positively testing compounds was determined spectrophotometrically. […] The promiscuous inhibitors resveratrol,[40] plumbagin,[41] and tiplaxtinin[42] […] It should be noticed that aggregating compounds may sequester the protein or the probe or may scatter highly polarized light, potentially interfering with the fluorescence anisotropy measurements. Colored and fluorescent compounds can also interfere. Compounds initially testing positive in the anisotropy screen should thus be checked for any unexpected changes of the total fluorescence intensity in the same samples, as well as for any artefactual effects on replicates omitting FtsZ.
# (§2) Figure 4 Fluorescence anisotropy screen for FtsZ allosteric inhibitors combined with cell-based methods. (A) Screen for FtsZ inhibitors employing the fluorescence anisotropy of probe (S)-2 (3 μM) and stabilized FtsZ-GMPCPP polymers (8 μM binding sites). The anisotropy values of the partially bound probe (void black circles), the free probe (void gray circles), and the values with two concentrations of each compound, 20 μM (gray circles) and 200 μM (black circles) are shown. Control values with the corresponding concentrations of dimethyl sulfoxide (DMSO) vehicle (2% void and gray circles; 4%, black circle) are also shown. (B) Chemical structures of synthetic ligands 6–26. (C) Effects of low-affinity inhibitors 6, 7, and 9 on B. subtilis 168 cell division. Raw data plots (n ≥ 30) are shown with the mean values marked (statistics in Table S2). The cells were incubated for 3 h with each compound, and cell lengths were measured. (D) Representative phase-contrast images of cells after 3 h with 7 or 9 (0.75 mM each). (E) Cellular localization of FtsZ-GFP in B. subtilis SU570 following growth for 1.5 h in the absence (inset) and presence of 7 (0.2 mM). Bars, 10 μm.
# (§3) Competition assays were performed by measuring, through the decrease in fluorescence anisotropy, the displacement of the fluorescent probes from stabilized FtsZ polymers. Increasing concentrations of competing ligands were added to the mixtures of cross-linked FtsZ polymers (10–15 μM) with probe 1 (3 μM), 7–8 μM FtsZ polymers with probe (S)-2 (3 μM), or 2–3 μM FtsZ polymers with (R)-5 (3 μM). HEPES buffer with 10 mM MgCl2 and 0.1 mM GMPCPP was employed, with a final volume of 0.5 mL, and the anisotropy measured at 25 °C. Under these conditions, the initial fraction of the probe bound was between 0.4 and 0.5. The fraction of the probe bound (Vb) was calculated [drawing 1] where rfree and rmax are the anisotropy values of the free and bound probes, respectively, and R is the ratio between the fluorescence intensities of the bound and free probe (Table S1). The binding data were plotted against the competing ligand concentration and fitted by competition equilibrium of the ligand and the probe for the same binding site. The resulting system of equations[50] was numerically solved using the Equigra v. 5.0 program,[33] which provided the best-fitted value of the competitor binding constant.
# B. subtilis [3] = assay: Minimal growth inhibitory concentration (broth macrodilution), B. subtilis; format: cell-based, Bacillus subtilis; settings: Bacillus subtilis, read-out: MIC B. subtilis
# Description: as §1
# S. aureus Mu50 [4] = assay: Minimal growth inhibitory concentration (broth macrodilution), S. aureus Mu50; format: cell-based, Staphylococcus aureus; settings: Staphylococcus aureus, MU50, read-out: MIC S. aureus Mu50
# Description: as §1
# S. aureus Mu50 [5] = assay: Minimal division inhibitory concentration, S. aureus Mu50; format: cell-based; settings: Staphylococcus aureus, MU50, read-out: MDC S. aureus Mu50
# Description: as §1
# [6] = Solubility in HEPES buffer with 2% DMSO, spectrophotometric; format: physicochemical; settings: HEPES buffer containing 2% DMSO, 25 °C, aqueous buffer, kinetic from dmso stock; HEPES buffer pH 6.8 containing 2% DMSO
# Description: 3.2. Solubility of Compounds. Stock solutions of compounds were prepared in
# DMSO (spectroscopic grade, Merck) a nd stored at -20 °C. Compound solubility in 50
# mM HEPES-KOH, 50 mM KCl, 1 mM EDTA, pH 6.8 (HEPES buffer) containing 2%
# DMSO was determined spectrophotometrically, monitoring the linear correlation
# between the absorbance and the compound concentration and the absence of light
# scattering. The solutions were optionally centrifuged at 100000 rpm for 20 min at 25 °C
# in a TLA100 rotor with a Beckman Optima Max -XP ultracentrifuge.
# [7] = target: T2, stabilized polymers of FtsZ from B. subtilis (Bacillus subtilis, UniProt P17865); assay: Competition assay: displacement of probe (R)-5 from stabilized BsFtsZ-GMPCPP polymers; format: binding; settings: stabilized polymers of FtsZ from B. subtilis, probe (R)-5, mean ± SEM
# T2 construct: made in house
# Description: (§4) FtsZ (10–15 μM) was assembled in HEPES buffer, 10 mM MgCl2, 50 μM GMPCPP at 25 °C for 10 min, and then 0.15% (v/v) glutaraldehyde[36] (distilled grade for microscopy, TAAB Laboratories, U.K.) was added to the solution that was incubated at 25 °C for 10 min more. (This was the minimal glutaraldehyde concentration determined to stabilize FtsZ polymers specifically binding probe 1.) The remains of the cross-linking agent were quenched by adding 60 mM NaBH4, the sample was incubated on ice for 10 min and degassed.[36] Cross-linked polymers were centrifuged for 10 min at 8200g (5000 rpm) and 4 °C in 15 mL Falcon tubes employing a Rotina 380R (Hettich) centrifuge, the supernatant was removed and the pellet was resuspended in the same volume of HEPES buffer, 10 mM MgCl2, containing 5 μM GMPCPP. Fixed FtsZ polymers were active in binding assays after more than 2 days at 4 °C; they could also be frozen in liquid nitrogen with a small loss of binding capacity. […] Cross-linked polymers of SaFtsZ were similarly prepared.
# as §3
# [8] = target: T3, stabilized FtsZ-GMPCPP polymers (BsFtsZ) (Bacillus subtilis, UniProt P17865); assay: Competition assay: displacement of probe (S)-2 from stabilized FtsZ-GMPCPP polymers; format: binding; settings: for Kd: (S)-2 3 μM, 8 μM binding sites
# T3 construct: made in house
# Description: as §4, §3
# B. subtilis 168 = assay: Cell length of B. subtilis 168 incubated with FtsZ inhibitors; format: cell-based, Bacillus subtilis; parameters: unit not given here; settings: B. subtilis 168, 3 h, mean and standard error, n ≥ 30
# Description: as §2, with “The anisotropy values of the partially bound probe (void black circles), the free probe (void gray circles), and the values with two concentrations of each compound, 20 μM (gray circles) and 200 μM (black circles) are shown.” left out, “(B) Chemical structures of synthetic ligands 6–26. (C) Effects of low-affinity inhibitors 6, 7, and 9 on B. subtilis 168 cell division.” left out
# as §1, with “MBC values were determined as the lowest concentration of inhibitor at which there was a 99.9% reduction in colony-forming units/mL compared to the inoculum.” left out, “promoter. […]” for “promoter.”
# T2 sequence (P17865 whole entry): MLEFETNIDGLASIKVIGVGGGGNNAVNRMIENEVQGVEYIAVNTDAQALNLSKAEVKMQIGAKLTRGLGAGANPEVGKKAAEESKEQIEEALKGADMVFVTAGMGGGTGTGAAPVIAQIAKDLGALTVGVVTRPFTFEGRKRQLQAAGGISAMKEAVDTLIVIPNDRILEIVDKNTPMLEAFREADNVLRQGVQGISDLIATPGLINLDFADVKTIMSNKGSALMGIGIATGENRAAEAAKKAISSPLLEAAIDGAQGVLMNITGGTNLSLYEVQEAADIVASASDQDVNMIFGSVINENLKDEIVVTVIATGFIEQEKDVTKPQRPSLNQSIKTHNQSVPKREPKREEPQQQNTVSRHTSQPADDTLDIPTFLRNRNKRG
# T3 sequence (P17865 whole entry): as above
# T1 sequence (P17865 whole entry): as above
structure (smiles),measurement,setting,value
"Oc1ccc(/C=C/c2cc(O)cc(O)c2)cc1 [resveratrol, reference compound]","inhibition of B. subtilis cell division, in words",B. subtilis [1],none of them impaired B. subtilis cell division
same,"result of the anisotropy screen, in words",[2],weakly modified anisotropy and total fluorescence intensity
NC(=O)c1c(F)ccc(OCCCc2cccc(C(F)(F)F)c2)c1F [Compound 23],minimal effective concentration,B. subtilis [1],5 µM
same,MIC,B. subtilis [3],10 µM
same,MIC,S. aureus Mu50 [4],50 µM
same,minimal effective concentration,S. aureus Mu50 [5],25 µM
same,solubility,[6],50 µM
same,Kd,[7]; read-out: KD,1.5 ± 0.1 µM
NC(=O)c1ccc(NCc2cccc(Cl)c2)cc1 [Compound 9],Kd,[8],196 µM and ~200 µM
same,"result of the anisotropy screen, in words",[2],weak binders
same,solubility,[6],≥ 100 µM
same,length,B. subtilis 168; 0.5 mM,6.1 ± 0.3
same,length,B. subtilis 168; 0.75 mM,11.6 ±0.4
CCN(CC)CCNc1nc(/C=C/c2ccc(Cl)cc2)nc2cc3ccccc3cc12 [zantrin Z3],"result of the anisotropy screen, in words",[2],no evidence of binding
"O=C(O)C(=O)c1cn(Cc2ccccc2)c2ccc(-c3ccc(OC(F)(F)F)cc3)cc12 [tiplaxtinin, reference compound]","inhibition of B. subtilis cell division, in words",B. subtilis [1],none of them impaired B. subtilis cell division
same,"result of the anisotropy screen, in words",[2],weakly modified anisotropy and total fluorescence intensity
CN(Cc1cccc(Cl)c1)c1cccc(C(N)=O)c1 [Compound 7],Kd,[8],159 µM and ~200 µM
same,fold lower concentration inhibiting B. subtilis division than 3-methoxybenzamide,B. subtilis [1]; 3-methoxybenzamide value from ref 44,~20 fold
same,"result of the anisotropy screen, in words",[2],weak binders
same,solubility,[6],≥ 100 µM
same,length,B. subtilis 168; 0.5 mM,8.5 ± 0.3
same,length,B. subtilis 168; 0.75 mM,24.7 ±0.8
O=C(Oc1cc(OC(=O)c2cc(O)cc(O)c2)c2ccccc2c1)c1ccc(O)c(O)c1 [UCM44],"result of the anisotropy screen, in words",[2],marginal inhibitory effect
O=C(O)CCN(Cc1ccccc1)Cc1cccc(Sc2ccccc2)c1 [PC170942],"result of the anisotropy screen, in words",[2],no evidence of binding
NC(=O)c1c(F)ccc(OCCc2cccc(C(F)(F)F)c2)c1F [Compound 22],minimal effective concentration,B. subtilis [1],15 µM
same,MIC,B. subtilis [3],50 µM
same,MIC,S. aureus Mu50 [4],200 µM
same,minimal effective concentration,S. aureus Mu50 [5],100 µM
same,solubility,[6],> 100 µM
same,Kd,[7]; read-out: KD,5.9 ± 0.4 µM
"CC1=CC(=O)c2c(O)cccc2C1=O [plumbagin, reference compound]","inhibition of B. subtilis cell division, in words",B. subtilis [1],none of them impaired B. subtilis cell division
same,"result of the anisotropy screen, in words",[2],weakly modified anisotropy and total fluorescence intensity
"OCc1nc2cc(Cl)cnc2s1 [CTPM, 6-(chloro[1,3]thiazolo[5,4-b]pyridin-2-yl)methanol, reference compound]",Kd,[8],1000 ± 100 µM
NC(=O)c1cccc(NCc2cccc(Cl)c2)c1 [Compound 6],Kd,[8],233 µM and ~200 µM
same,"result of the anisotropy screen, in words",[2],weak binders
same,solubility,[6],≥ 100 µM
same,length,B. subtilis 168; 0.5 mM,5.9 ± 0.3
same,length,B. subtilis 168; 0.75 mM,8.0 ± 0.2
CN(C)CCC(Oc1ccc(F)c(C(N)=O)c1F)c1cccc(C(F)(F)F)c1 (stereo not shown) [Compound 24],minimal effective concentration,B. subtilis [1],> 50 µM
same,MIC,B. subtilis [3],> 100 µM
same,MIC,S. aureus Mu50 [4],> 100 µM
same,minimal effective concentration,S. aureus Mu50 [5],> 100 µM
same,solubility,[6],> 1000 µM
same,Kd,[7]; KD,145 ± 10 µM
"Nc1nc2c(ncn2[C@@H]2O[C@H](COP(=O)(O)OP(=O)(O)O)[C@@H](O)[C@H]2O)c(=O)[nH]1 [GDP, guanosine diphosphate, reference compound]","displacement of (S)-2 from its binding site, in words",[8]; negative control,does not displace
"COc1ccc(F)c(C(N)=O)c1F [DFMBA, 2,6-difluoro-3-methoxybenzamide, reference compound]",Kd,[8],670 ± 50 µM
CN(Cc1cccc(Cl)c1)c1ccc(C(N)=O)cc1 [Compound 10],Kd,[8],250 µM and ~200 µM
same,"result of the anisotropy screen, in words",[2],weak binders
same,solubility,[6],≥ 100 µM

# Source: paper PMC8478281, “Targeting the FtsZ Allosteric Binding Site with a Novel Fluorescence Polarization Screen, Cytological and Structural Approaches for Antibacterial Discovery” (Journal of Medicinal Chemistry, 2021)
